Results as given in PubChem BioAssay (NCI).
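Protocol summary: plate cells (96-well), add compound at 5 concentrations, incubate 48 h, interpolate endpoints linearly. GI50 is the concentration that inhibits growth by half. The concentration for full growth arrest is given as TGI.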

Experiments:
Test in all cases: NCI anticancer screen, dose series, 48 h
[1] = tested on: 786-0 renal
[2] = tested on: A498 renal
[3] = tested on: A549 NSCLC
[4] = tested on: ACHN renal
[5] = tested on: BT-549 breast
[6] = tested on: CAKI-1 renal
[7] = tested on: CCRF-CEM leukemia
[8] = tested on: COLO 205 colon
[9] = tested on: DU-145 prostate
[10] = tested on: EKVX NSCLC
[11] = tested on: HCC-2998 colon
[12] = tested on: HCT-116 colon
[13] = tested on: HCT-15 colon
[14] = tested on: HL-60(TB) leukemia
[15] = tested on: HOP-62 NSCLC
[16] = tested on: HOP-92 NSCLC
[17] = tested on: HS 578T breast
[18] = tested on: HT29 colon
[19] = tested on: IGROV1 ovarian
[20] = tested on: K-562 leukemia
[21] = tested on: KM12 colon
[22] = tested on: LOX IMVI melanoma
[23] = tested on: M14 melanoma
[24] = tested on: MALME-3M melanoma
[25] = tested on: MCF7 breast
[26] = tested on: MDA-MB-231 breast
[27] = tested on: MDA-MB-435
[28] = tested on: MOLT-4 leukemia
[29] = tested on: NCI-H226 lung
[30] = tested on: NCI-H23 lung
[31] = tested on: NCI-H460 lung
[32] = tested on: NCI-H522 lung
[33] = tested on: NCI/ADR-RES ovarian
[34] = tested on: OVCAR-3 ovarian
[35] = tested on: OVCAR-4 ovarian
[36] = tested on: OVCAR-5 ovarian
[37] = tested on: OVCAR-8 ovarian
[38] = tested on: PC-3 prostate
[39] = tested on: RPMI-8226 leukemia
[40] = tested on: RXF 393 renal
[41] = tested on: SF-268 CNS
[42] = tested on: SF-295 CNS
[43] = tested on: SF-539 CNS
[44] = tested on: SK-MEL-2 melanoma
[45] = tested on: SK-MEL-28 melanoma
[46] = tested on: SK-MEL-5 melanoma
[47] = tested on: SK-OV-3 ovarian
[48] = tested on: SN12C renal
[49] = tested on: SNB-19 CNS
[50] = tested on: SNB-75 CNS
[51] = tested on: SR leukemia
[52] = tested on: SW-620 colon
[53] = tested on: T-47D breast
[54] = tested on: TK-10 renal
[55] = tested on: U251 CNS
[56] = tested on: UACC-257 melanoma
[57] = tested on: UACC-62 melanoma
[58] = tested on: UO-31 renal

## O=c1[nH]c2ccc(N=Cc3c(O)[nH]c4ccccc34)cc2[nH]1
[1]
  GI50: > 25 µM
  TGI: > 25 µM
[2]
  GI50: > 25 µM
  TGI: > 25 µM
[3]
  GI50: > 25 µM
  TGI: > 25 µM
[4]
  GI50: > 25 µM
  TGI: > 25 µM
[5]
  GI50: > 25 µM
  TGI: > 25 µM
[6]
  GI50: > 25 µM
  TGI: > 25 µM
[7]
  GI50: 24.2 µM
  TGI: > 25 µM
[8]
  GI50: > 25 µM
  TGI: > 25 µM
[9]
  GI50: > 20.4 µM
  TGI: > 25 µM
[10]
  GI50: > 25 µM
  TGI: > 25 µM
[11]
  GI50: > 25 µM
  TGI: > 25 µM
[12]
  GI50: > 25 µM
  TGI: > 25 µM
[13]
  GI50: > 25 µM
  TGI: > 25 µM
[14]
  GI50: > 25 µM
  TGI: > 25 µM
[15]
  GI50: > 17.7 µM
  TGI: > 25 µM
[16]
  GI50: 23.2 µM
  TGI: > 25 µM
[17]
  GI50: > 6.4 µM
  TGI: > 25 µM
[18]
  GI50: > 25 µM
  TGI: > 25 µM
[19]
  GI50: > 25 µM
  TGI: > 25 µM
[20]
  GI50: > 25 µM
  TGI: > 25 µM
[21]
  GI50: > 25 µM
  TGI: > 25 µM
[22]
  GI50: > 25 µM
  TGI: > 25 µM
[23]
  GI50: > 25 µM
  TGI: > 25 µM
[24]
  GI50: > 25 µM
  TGI: > 25 µM
[25]
  GI50: > 25 µM
  TGI: > 25 µM
[26]
  GI50: > 25 µM
  TGI: > 25 µM
[27]
  GI50: > 25 µM
  TGI: > 25 µM
[28]
  GI50: > 25 µM
  TGI: > 25 µM
[29]
  GI50: > 25 µM
  TGI: > 25 µM
[30]
  GI50: > 25 µM
  TGI: > 25 µM
[31]
  GI50: > 25 µM
  TGI: > 25 µM
[32]
  GI50: > 25 µM
  TGI: > 25 µM
[33]
  GI50: > 25 µM
  TGI: > 25 µM
[34]
  GI50: > 25 µM
  TGI: > 25 µM
[35]
  GI50: > 25 µM
  TGI: > 25 µM
[36]
  GI50: > 25 µM
  TGI: > 25 µM
[37]
  GI50: > 25 µM
  TGI: > 25 µM
[38]
  GI50: > 25 µM
  TGI: > 25 µM
[39]
  GI50: > 25 µM
  TGI: > 25 µM
[40]
  GI50: > 25 µM
  TGI: > 25 µM
[41]
  GI50: > 13.8 µM
  TGI: > 25 µM
[42]
  GI50: > 25 µM
  TGI: > 25 µM
[43]
  GI50: > 25 µM
  TGI: > 25 µM
[44]
  GI50: > 25 µM
  TGI: > 25 µM
[45]
  GI50: > 25 µM
  TGI: > 25 µM
[46]
  GI50: > 25 µM
  TGI: > 25 µM
[47]
  GI50: > 25 µM
  TGI: > 25 µM
[48]
  GI50: > 25 µM
  TGI: > 25 µM
[49]
  GI50: > 25 µM
  TGI: > 25 µM
[50]
  GI50: > 14.7 µM
  TGI: > 25 µM
[51]
  GI50: > 25 µM
  TGI: > 25 µM
[52]
  GI50: > 25 µM
  TGI: > 25 µM
[53]
  GI50: > 25 µM
  TGI: > 25 µM
[54]
  GI50: > 25 µM
  TGI: > 25 µM
[55]
  GI50: 18.6 µM
  TGI: > 25 µM
[56]
  GI50: > 25 µM
  TGI: > 25 µM
[57]
  GI50: > 25 µM
  TGI: > 25 µM
[58]
  GI50: > 25 µM
  TGI: > 25 µM
